# Reference: patent US11667730B2, “Oxime ester compound and photopolymerization initiator containing the same” (ADEKA CORPORATION, priority 2006, dated 2023)
# How the values were obtained:
# [1] = Solubility of oxime ester compound in solvent; type: physicochemical; settings: solvent PGM-Ac: Propylene glycol-1-monomethyl ether-2-acetate
# Method: When used as a photopolymerization initiator, they dissolve in propylene glycol-1-monomethyl ether-2-acetate or cyclohexanone as a solvent to a concentration of 1% by mass or higher, to satisfy the requirement as a photopolymerization initiator. The solubility measurement is preferably made at 20° to 30° C.
# [2] = Solubility of oxime ester compound in solvent; type: physicochemical; settings: solvent CHN: cyclohexanone (footnote)
smiles,measurement,setting,value
CCOCCn1c2ccc(/C(C)=N/OC(C)=O)cc2c2cc([N+](=O)[O-])ccc21 [compound 7],Solubility PGM-Ac,[1],0.38%
same,Solubility CHN,[2],2.4%
CCCCCCCCCCCCCCn1c2ccc(/C(C)=N/OC(C)=O)cc2c2cc([N+](=O)[O-])ccc21 [compound 46],Solubility PGM-Ac,[1],0.5%
same,Solubility CHN,[2],5.0%
CCCCC(CC)Cn1c2ccc(/C(=N/OC(C)=O)c3ccc(C(C)(C)C)cc3)cc2c2cc([N+](=O)[O-])ccc21 (stereo not shown) [compound 53],Solubility PGM-Ac,[1],5.0%
same,Solubility CHN,[2],24%
COCC(C)OC(=O)Cn1c2ccc(/C(C)=N/OC(C)=O)cc2c2cc([N+](=O)[O-])ccc21 (stereo not shown) [compound 10],Solubility PGM-Ac,[1],0.091%
same,Solubility CHN,[2],0.54%
COCC(C)OC(=O)CCCCCn1c2ccc(/C(C)=N/OC(C)=O)cc2c2cc([N+](=O)[O-])ccc21 (stereo not shown) [compound 12],Solubility PGM-Ac,[1],25%
same,Solubility CHN,[2],31%
CCCCCCCCCCC/C(=N\OC(C)=O)c1ccc2c(c1)c1cc([N+](=O)[O-])ccc1n2CC(CC)CCCC (stereo not shown) [compound 50],Solubility PGM-Ac,[1],6.0%
same,Solubility CHN,[2],45%
CCCCCCCCCCCCCCCCn1c2ccc(/C(C)=N/OC(C)=O)cc2c2cc([N+](=O)[O-])ccc21 [compound 47],Solubility PGM-Ac,[1],0.3%
same,Solubility CHN,[2],5.3%
CCCCCCCCn1c2ccc(/C(C)=N/OC(C)=O)cc2c2cc([N+](=O)[O-])ccc21 [compound 2],Solubility PGM-Ac,[1],1.4%
same,Solubility CHN,[2],9.2%
CCCCC(CC)Cn1c2ccc(/C(=N/OC(C)=O)c3ccc(OC(C)COC)cc3)cc2c2cc([N+](=O)[O-])ccc21 (stereo not shown) [Compound No. 54],Solubility PGM-Ac,[1],20%
same,Solubility CHN,[2],14%
CCCCCCC/C(=N\OC(C)=O)c1ccc2c(c1)c1cc([N+](=O)[O-])ccc1n2CC(CC)CCCC (stereo not shown) [compound 48],Solubility PGM-Ac,[1],5.0%
same,Solubility CHN,[2],42%
CCCCC(CC)Cn1c2ccc(/C(Cc3ccccc3)=N/OC(C)=O)cc2c2cc([N+](=O)[O-])ccc21 (stereo not shown) [compound 51],Solubility PGM-Ac,[1],1.5%
same,Solubility CHN,[2],13%
CCCCC(CC)Cn1c2ccc(/C(=N/OC(C)=O)c3ccc(F)cc3C)cc2c2cc([N+](=O)[O-])ccc21 (stereo not shown) [compound 58],Solubility PGM-Ac,[1],1.2%
same,Solubility CHN,[2],7.6%
CCCCC(CC)Cn1c2ccc(/C(=N/OC(C)=O)c3ccc(OCC)cc3OCC)cc2c2cc([N+](=O)[O-])ccc21 (stereo not shown) [compound 56],Solubility PGM-Ac,[1],3.6%
same,Solubility CHN,[2],23%
CCCCC(CC)Cn1c2ccc(/C(C)=N/OC(C)=O)cc2c2cc([N+](=O)[O-])ccc21 (stereo not shown) [Compound No. 1],Solubility PGM-Ac,[1],4.1%
same,Solubility CHN,[2],18.9%
CCCCC(CC)Cn1c2ccc(/C(=N/OC(C)=O)c3ccccc3OCCOC)cc2c2cc([N+](=O)[O-])ccc21 (stereo not shown) [compound 55],Solubility PGM-Ac,[1],1.2%
same,Solubility CHN,[2],3.2%
C=CC(=O)OCCn1c2ccc(/C(CCCCCCCCCCC)=N/OC(C)=O)cc2c2cc([N+](=O)[O-])ccc21 [compound 20],Solubility PGM-Ac,[1],0.16%
same,Solubility CHN,[2],3.7%
CCCCCCCCCCCCn1c2ccc(/C(C)=N/OC(C)=O)cc2c2cc([N+](=O)[O-])ccc21 [compound 45],Solubility PGM-Ac,[1],0.4%
same,Solubility CHN,[2],7.2%
CCn1c2ccc(/C(=N/OC(C)=O)c3ccc(OC(C)C)cc3OC(C)C)cc2c2cc([N+](=O)[O-])ccc21 [compound 57],Solubility PGM-Ac,[1],2.4%
same,Solubility CHN,[2],12%
CCn1c2ccc(/C(=N/OC(C)=O)c3ccc(OC(C)COC)cc3C)cc2c2cc([N+](=O)[O-])ccc21 (stereo not shown) [compound 33],Solubility PGM-Ac,[1],5.1%
same,Solubility CHN,[2],27%
CCn1c2ccc(/C(C)=N/OC(C)=O)cc2c2cc([N+](=O)[O-])ccc21 [compound 3],Solubility PGM-Ac,[1],0.12%
same,Solubility CHN,[2],0.80%
